Laboratory results reported in the supplement of paper PMC10307832.

Legend:
Assay in all cases: relative viability (nuclei count vs DMSO), 5 days (fraction); higher = more cells survive
Carfilzomib + Pictilisib = compound: CC(C)C[C@H](NC(=O)[C@H](CCc1ccccc1)NC(=O)CN1CCOCC1)C(=O)N[C@@H](Cc1ccccc1)C(=O)N[C@@H](CC(C)C)C(=O)[C@@]1(C)CO1 [Carfilzomib] + CS(=O)(=O)N1CCN(Cc2cc3nc(-c4cccc5[nH]ncc45)nc(N4CCOCC4)c3s2)CC1 [Pictilisib] (partner 1 µM)
In short: (§1)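 Relative viability equals treated-well nuclei counts divided by vehicle-well nuclei counts. Counts came from 4× images of lung cancer cell lines grown in 1536-well plates for 5 days after pin-tool dosing on the day after seeding. Dosing used one drug alone or a fixed anchor-drug dose plus five library-drug doses (not always all listed) in √10 steps, and values are medians of duplicate plates.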

Carfilzomib + Decitabine = compound: CC(C)C[C@H](NC(=O)[C@H](CCc1ccccc1)NC(=O)CN1CCOCC1)C(=O)N[C@@H](Cc1ccccc1)C(=O)N[C@@H](CC(C)C)C(=O)[C@@]1(C)CO1 [Carfilzomib] + Nc1ncn([C@H]2C[C@H](O)[C@@H](CO)O2)c(=O)n1 [Decitabine] (partner 2 µM)
In short: as §1

Crizotinib + Navitoclax = compound: C[C@@H](Oc1cc(-c2cnn(C3CCNCC3)c2)cnc1N)c1c(Cl)ccc(F)c1Cl [Crizotinib] + CC1(C)CCC(c2ccc(Cl)cc2)=C(CN2CCN(c3ccc(C(=O)NS(=O)(=O)c4ccc(N[C@H](CCN5CCOCC5)CSc5ccccc5)c(S(=O)(=O)C(F)(F)F)c4)cc3)CC2)C1 [Navitoclax] (partner 0.5 µM)
In short: as §1

Olaparib + Luminespib = compound: O=C(c1cc(Cc2n[nH]c(=O)c3ccccc23)ccc1F)N1CCN(C(=O)C2CC2)CC1 [Olaparib] + CCNC(=O)c1noc(-c2cc(C(C)C)c(O)cc2O)c1-c1ccc(CN2CCOCC2)cc1 [Luminespib] (partner 0.01 µM)
In short: as §1

| Cell Line | relative viability (Carfilzomib + Pictilisib; first compound 0.001 µM) | relative viability (Carfilzomib + Pictilisib; first compound 0.003162 µM) | relative viability (Carfilzomib + Pictilisib; first compound 0.01 µM) | relative viability (Carfilzomib + Pictilisib; first compound 0.03162 µM) | relative viability (Carfilzomib + Pictilisib; first compound 0.1 µM) | relative viability (Carfilzomib + Decitabine; first compound 0.001 µM) | relative viability (Carfilzomib + Decitabine; first compound 0.003162 µM) | relative viability (Carfilzomib + Decitabine; first compound 0.01 µM) | relative viability (Carfilzomib + Decitabine; first compound 0.03162 µM) | relative viability (Carfilzomib + Decitabine; first compound 0.1 µM) | relative viability (Crizotinib + Navitoclax; first compound 0.01 µM) | relative viability (Crizotinib + Navitoclax; first compound 0.03162 µM) | relative viability (Crizotinib + Navitoclax; first compound 0.1 µM) | relative viability (Crizotinib + Navitoclax; first compound 1 µM) | relative viability (Crizotinib + Navitoclax; first compound 0.3162 µM) | relative viability (Olaparib + Luminespib; first compound 0.08 µM) | relative viability (Olaparib + Luminespib; first compound 0.253 µM) | relative viability (Olaparib + Luminespib; first compound 2.53 µM) | relative viability (Olaparib + Luminespib; first compound 8 µM) |
| --- | --- | --- | --- | --- | --- | --- | --- | --- | --- | --- | --- | --- | --- | --- | --- | --- | --- | --- | --- |
| HCC-366 | 0.129 | 0.175 | 0.17 | 0.312 | 0.0504 | 0.32 | 0.412 | 0.352 | 0.447 | 0.086 | 0.991 | 1.11 | 1.06 | 1.17 | – | – | – | – | – |
| HCC-827 | 1.06 | 1.08 | 1.06 | 1.05 | 0.487 | 0.287 | 0.371 | 0.31 | 0.269 | 0.133 | 0.954 | – | 0.987 | 0.953 | 1.01 | 0.544 | 0.585 | 0.629 | 0.368 |
| HOP-62 | 0.569 | 1.11 | 0.467 | 0.0638 | 0.0695 | 0.25 | 0.207 | 0.249 | 0.182 | 0.0817 | 0.994 | 0.996 | 0.943 | 0.948 | – | 1 | 0.809 | 0.744 | 0.476 |
| IA-LM | 0.293 | 0.305 | 0.292 | 0.0283 | 0.0095 | – | – | – | – | – | 0.71 | 0.759 | 0.792 | 0.842 | 0.796 | – | – | – | – |
| LC-2-ad | 0.448 | 0.525 | 0.455 | 0.149 | 0.16 | 0.878 | 0.811 | 0.75 | 0.861 | 0.557 | 0.412 | 0.432 | 0.44 | 0.442 | – | 1.11 | 0.865 | 0.765 | 0.811 |
| LCLC-97TM1 | 0.214 | 0.223 | 0.122 | 0.114 | 0.116 | 0.234 | 0.283 | 0.226 | 0.115 | 0.0656 | 0.318 | 0.39 | 0.341 | 0.404 | 0.317 | 0.756 | 0.651 | 0.712 | 0.637 |
| LCLC-103H | 0.616 | 0.659 | 0.718 | 0.685 | 0.347 | 0.722 | 0.732 | 0.793 | 0.728 | 0.387 | – | – | – | – | – | 1.21 | 0.805 | 1.19 | 0.769 |
| LK-2 | – | 0.826 | 0.64 | 0.266 | 0.251 | 0.276 | 0.369 | 0.193 | 0.119 | 0.108 | 0.826 | 0.938 | 0.674 | 0.905 | 0.967 | 0.176 | 0.212 | 0.214 | 0.181 |
| LOU-NH91 | 0.51 | 0.525 | 0.477 | 0.312 | 0.255 | 0.823 | 0.864 | 0.852 | 0.413 | 0.389 | 0.68 | 0.708 | 0.701 | 0.727 | 0.647 | 0.341 | 0.36 | 0.346 | 0.332 |
| LU99A | 0.349 | 0.341 | 0.331 | 0.238 | 0.151 | 0.952 | 1.13 | 0.961 | 0.821 | 0.317 | 0.801 | 0.743 | 0.826 | 0.786 | 0.721 | 0.249 | 0.254 | 0.21 | 0.206 |
| LXF-289 | 0.753 | 0.776 | 0.644 | 0.0604 | 0.0625 | 0.368 | 0.399 | 0.375 | 0.162 | 0.0931 | 0.856 | 0.931 | – | 0.939 | 0.879 | 0.784 | 0.635 | 0.721 | 0.567 |
| NCI-H358 | 0.424 | 0.453 | 0.305 | 0.147 | 0.135 | 0.208 | 0.24 | 0.181 | 0.0811 | 0.0784 | – | – | – | – | – | 0.324 | 0.253 | 0.24 | 0.206 |
| NCI-H522 | – | – | – | – | – | 0.582 | 0.631 | 0.615 | 0.584 | 0.353 | – | – | – | – | – | 1.23 | 1.09 | 0.781 | 0.824 |
| NCI-H650 | 0.83 | 1.06 | 1.01 | 0.385 | 0.189 | 0.342 | 0.314 | 0.316 | 0.31 | 0.139 | – | – | – | – | – | 0.924 | 0.816 | 0.577 | 0.533 |
| NCI-H661 | 0.391 | 0.458 | 0.457 | 0.483 | 0.238 | 0.583 | 0.585 | 0.568 | 0.598 | 0.394 | – | – | – | – | – | 1.02 | 0.869 | 0.878 | 0.619 |
| NCI-H1299 | 0.735 | 0.838 | 0.6 | 0.0711 | 0.0334 | – | – | – | – | – | 1.04 | 1.02 | 1.01 | 1.01 | 1.07 | – | – | – | – |
| NCI-H1563 | 0.615 | 0.62 | 0.689 | 0.595 | 0.548 | – | – | – | – | – | – | – | – | – | – | 1.21 | 0.475 | 0.538 | 0.481 |
| NCI-H1623 | – | – | – | – | – | – | – | – | – | – | – | – | – | – | – | 0.492 | 0.484 | 0.384 | 0.331 |
| NCI-H1648 | – | – | – | – | – | 0.447 | 0.495 | 0.474 | 0.404 | 0.255 | – | – | – | – | – | – | – | – | – |
| NCI-H1703 | 0.202 | 0.3 | 0.17 | 0.16 | 0.144 | – | – | – | – | – | 1.03 | 0.933 | – | 1.12 | – | – | – | – | – |
| NCI-H2228 | 0.465 | 0.468 | 0.206 | 0.102 | 0.115 | – | – | – | – | – | 1.01 | 1.2 | 0.648 | 0.409 | 0.996 | 0.146 | 0.132 | 0.145 | 0.117 |
| NCI-H2342 | – | – | – | – | – | 0.711 | 0.78 | 0.782 | 0.887 | 0.585 | – | – | – | – | – | 0.685 | 0.561 | 0.712 | 0.649 |
| SW 900 | – | – | – | – | – | – | 0.5 | 0.344 | 0.197 | 0.22 | – | – | – | – | – | 0.171 | 0.17 | 0.184 | 0.197 |
